Data set [1] concerns the target T1, Phosphatidylserine lipase ABHD16A (Mus musculus) (UniProt Q9Z1Q2).
T1 sequence (whole entry): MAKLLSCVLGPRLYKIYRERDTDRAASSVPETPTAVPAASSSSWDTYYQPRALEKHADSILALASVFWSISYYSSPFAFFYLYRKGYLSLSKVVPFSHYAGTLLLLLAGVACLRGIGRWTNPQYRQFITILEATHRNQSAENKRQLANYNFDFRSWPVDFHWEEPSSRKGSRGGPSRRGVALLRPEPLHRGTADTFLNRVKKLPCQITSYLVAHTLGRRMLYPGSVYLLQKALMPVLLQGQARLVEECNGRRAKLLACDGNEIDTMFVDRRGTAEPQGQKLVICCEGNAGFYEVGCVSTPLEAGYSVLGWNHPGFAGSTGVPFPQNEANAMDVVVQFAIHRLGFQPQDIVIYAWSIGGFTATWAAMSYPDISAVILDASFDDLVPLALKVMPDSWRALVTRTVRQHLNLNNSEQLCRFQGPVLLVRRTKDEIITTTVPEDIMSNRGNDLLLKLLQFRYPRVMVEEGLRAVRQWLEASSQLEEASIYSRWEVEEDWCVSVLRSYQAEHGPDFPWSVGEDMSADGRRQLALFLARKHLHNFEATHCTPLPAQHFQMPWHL
In words: Inhibition of azido-fluorophosphonate probe binding to mouse ABHD16A expressed in HEK293T cells at 200 uM incubated for 1 hr followed by azido-fluorophosphonate addition and measured after 1 hr by fluorescent Western blotting analysis relative to control. Format: cell-based. The settings on record: time 2.0 hrs.

In data set [2] the target is T2, Phosphatidylserine lipase ABHD16A (Homo sapiens) (UniProt O95870).
T2 sequence (whole entry): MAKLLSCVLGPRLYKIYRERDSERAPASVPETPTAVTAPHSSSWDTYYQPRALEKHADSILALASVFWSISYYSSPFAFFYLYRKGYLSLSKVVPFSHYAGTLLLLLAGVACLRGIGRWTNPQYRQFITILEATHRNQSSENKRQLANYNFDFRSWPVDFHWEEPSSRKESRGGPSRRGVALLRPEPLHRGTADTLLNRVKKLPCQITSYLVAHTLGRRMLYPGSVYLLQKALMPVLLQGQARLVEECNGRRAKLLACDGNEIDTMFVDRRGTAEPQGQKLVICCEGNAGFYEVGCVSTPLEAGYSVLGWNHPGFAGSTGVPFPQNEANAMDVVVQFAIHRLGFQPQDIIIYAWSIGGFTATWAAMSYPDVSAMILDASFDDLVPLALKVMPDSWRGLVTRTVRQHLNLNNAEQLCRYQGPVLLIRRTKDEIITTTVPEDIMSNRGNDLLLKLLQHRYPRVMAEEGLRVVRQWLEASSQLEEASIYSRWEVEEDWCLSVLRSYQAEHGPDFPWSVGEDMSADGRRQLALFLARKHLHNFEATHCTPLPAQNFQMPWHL
In words: Inhibition of azido-fluorophosphonate probe binding to human ABHD16A expressed in HEK293T cells at 100 uM incubated for 1 hr followed by azido-fluorophosphonate addition and measured after 1 hr by fluorescent Western blotting analysis relative to control. It counts as cell-based. The settings on record: time 2.0 hrs.

The target in data set [3] is T2, Phosphatidylserine lipase ABHD16A (Homo sapiens). In words: Inhibition of azido-fluorophosphonate probe binding to human ABHD16A expressed in HEK293T cells at 20 uM incubated for 1 hr followed by azido-fluorophosphonate addition and measured after 1 hr by fluorescent Western blotting analysis relative to control. Format: cell-based. The settings on record: time 2.0 hrs.

Data set [4] concerns the target T3, ABHD12 (lysophosphatidylserine lipase) (Homo sapiens, UniProt Q8N2K0).
T3 sequence (Q8N2K0 whole entry): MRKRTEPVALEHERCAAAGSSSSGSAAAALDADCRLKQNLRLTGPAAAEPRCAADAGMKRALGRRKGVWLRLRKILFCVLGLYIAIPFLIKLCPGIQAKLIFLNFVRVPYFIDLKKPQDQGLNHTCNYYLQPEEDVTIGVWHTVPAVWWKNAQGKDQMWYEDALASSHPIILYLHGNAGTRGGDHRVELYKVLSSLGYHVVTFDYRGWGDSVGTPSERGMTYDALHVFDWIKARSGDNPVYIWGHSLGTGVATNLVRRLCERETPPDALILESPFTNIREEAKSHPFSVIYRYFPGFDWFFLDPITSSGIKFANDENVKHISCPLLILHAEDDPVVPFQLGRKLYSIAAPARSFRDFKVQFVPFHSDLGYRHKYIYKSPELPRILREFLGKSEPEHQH
In words: Inhibition of azido-fluorophosphonate probe binding to human ABHD12 expressed in HEK293T cells at 100 uM incubated for 1 hr followed by azido-fluorophosphonate addition and measured after 1 hr by fluorescent Western blotting analysis relative to control. Format: toxicity, cell-based. The settings on record: HEK293T cells that express human ABHD12, probe azido-fluorophosphonate.

The target of data set [5] is T3, ABHD12 (lysophosphatidylserine lipase). Put plainly: Inhibition of azido-fluorophosphonate probe binding to human ABHD12 expressed in HEK293T cells at 20 uM incubated for 1 hr followed by azido-fluorophosphonate addition and measured after 1 hr by fluorescent Western blotting analysis relative to control. The settings on record: HEK293T cells that express human ABHD12, probe azido-fluorophosphonate. Format: toxicity, cell-based.

Data set [6] addresses T1, Phosphatidylserine lipase ABHD16A (Mus musculus). Put plainly: Inhibition of azido-fluorophosphonate probe binding to mouse ABHD16A expressed in HEK293T cells at 20 to 100 uM incubated for 1 hr followed by azido-fluorophosphonate addition and measured after 1 hr by fluorescent Western blotting analysis relative to control. Format: cell-based. The settings on record: dose 20-100 µM, time 2.0 hrs.

The target in data set [7] is T4, Lysophosphatidylserine lipase ABHD12 (Homo sapiens, UniProt Q8N2K0).
T4 sequence (Q8N2K0 whole entry): T3 sequence (Q8N2K0 whole entry)
Put plainly: Inhibition of azido-fluorophosphonate probe binding to human ABHD12 expressed in HEK293T cells at 20 to 100 uM incubated for 1 hr followed by azido-fluorophosphonate addition and measured after 1 hr by fluorescent Western blotting analysis. It counts as toxicity, cell-based. The settings on record: 2 h, dose 20-100 µM.

In data set [8] the target is T1, Phosphatidylserine lipase ABHD16A (Mus musculus). Put plainly: Inhibition of azido-fluorophosphonate probe binding to mouse ABHD16A expressed in HEK293T cells at 20 uM incubated for 1 hr followed by azido-fluorophosphonate addition and measured after 1 hr by fluorescent Western blotting analysis relative to control. It counts as cell-based. The settings on record: time 2.0 hrs.

Structures are written as SMILES.

The record followed here is ChEMBL document CHEMBL5370629, “Probing the Interactions of Thiazole Abietane Inhibitors with the Human Serine Hydrolases ABHD16A and ABHD12” (ACS Med Chem Lett, 2023).

Turning to `COC(=O)[C@]1(C)CCC[C@]2(C)c3cc(-c4csc([C@H](C)O)n4)c(C(C)C)cc3CC[C@@H]12`, the inhibition was determined as 66.4% in data set [1], 48% in data set [2] and 35.7% in data set [3]. Also, the inhibition at 2 h, 100 µM in data set [4] turned out to be 60.9%. In addition, in data set [5], the inhibition at 2 h, 20 µM amounted to 54%.

Consider `CC(C)c1cc2c(cc1-c1csc([C@H](C)O)n1)[C@@]1(C)CCCC(C)(C)[C@@H]1CC2`, for which the inhibition in data set [6] came out at 34.1%. The “inhibition (INH)” value in data set [7] is on record as “Not Active”.

On to `COC(=O)[C@]1(C)CCC[C@]2(C)c3cc(-c4csc(C)n4)c(C(C)C)cc3C(=O)C[C@@H]12`, for which the results for the inhibition in data set [1], in data set [2] and in data set [3] were 73.2%, 55.1% and 32.2%, respectively.

As to `CC(C)c1cc2c(cc1-c1csc([C@H](C)O)n1)[C@@]1(C)CCC[C@@](C)(C(N)=O)[C@@H]1CC2`, the figures for the inhibition in data set [1] and in data set [2] were 59.8% and 37.6%, respectively.

For `COC(=O)[C@]1(C)CCC[C@]2(C)c3cc(-c4csc(COC(C)=O)n4)c(C(C)C)cc3CC[C@@H]12`, the inhibition in data set [1] turned out to be 62.9%; in data set [2], 48.4%.

In the case of `CC(=O)c1nc(-c2cc3c(cc2C(C)C)CC[C@H]2[C@](C)(C(N)=O)CCC[C@]32C)cs1`, the inhibition came to 83.5% in data set [1], 55.5% in data set [8], 45.5% in data set [2] and 33.5% in data set [3].
